O=C1NC23NC(=O)NC2(N1)C(=O)NC3=O (stereo not given)
solubility (mole fraction)
Details	273.15 K	278.15 K	283.15 K	288.15 K	293.15 K	298.15 K	303.15 K	308.15 K	313.15 K	318.15 K
in 1,4-dioxane	0.000149	0.000174	0.000214	0.000267	0.000333	0.000453	0.000601	0.000696	0.000856	0.00102
in THF	0.000553	0.000655	0.000783	0.000992	0.00121	0.00151	0.00192	0.00224	0.00274	0.00325
in acetone	5.58e-05	6.73e-05	7.84e-05	9.4e-05	0.000114	0.000131	0.000158	0.00018	0.000202	0.000246
in acetonitrile	9e-06	1.15e-05	1.43e-05	1.72e-05	2.16e-05	2.75e-05	3.6e-05	4.4e-05	5.5e-05	6.79e-05
in ethanol	6.15e-05	7.48e-05	9.23e-05	0.000113	0.000136	0.00017	0.000214	0.000264	0.000322	0.000419
in ethyl acetate	2.59e-05	3.38e-05	4.59e-05	6.9e-05	9.2e-05	0.000124	0.000167	0.000225	0.000322	0.000413
in ethylene glycol	0.00029	0.000326	0.00036	0.000404	0.000459	0.000516	0.000587	0.000638	0.00073	0.000822
in isopropanol	0.000113	0.000133	0.000162	0.000192	0.000234	0.000284	0.000364	0.000482	0.000526	0.000614
in methanol	0.00161	0.00184	0.00243	0.00286	0.00348	0.00409	0.0049	0.00592	0.00727	0.00843
in n-propanol	2.56e-05	3.13e-05	3.83e-05	4.65e-05	6.12e-05	8.12e-05	0.000103	0.000122	0.000151	0.00019
in toluene	3.2e-06	4.3e-06	5.4e-06	6.1e-06	8.4e-06	1.05e-05	1.28e-05	1.5e-05	1.95e-05	2.6e-05
in water	5.92e-05	7.18e-05	9.34e-05	0.000126	0.000159	0.000188	0.000223	0.00025	0.000313	0.000369

— BigSolDB 2.1
